Results taken from patent publication US20050124559A1, “Antimicrobial agent” (priority 2002, published 2005).

Tests used:
Type in all cases: cell-based
Bacillus subtilis = test: Zone Inhibition Assay; parameters: key: +++=large zone of inhibition; −=no zone of inhibition; details: 3 μL of a 10 μg/mL sample on a filter disc on a lawn of bacteria, arbitrary scale
Description: (§1) Inhibition of various bacteria by compound 1 (n=6, and n=4) are described in Table 2. The biological data were determined by a Zone Inhibition Assay method. The zone of inhibition was measured using an arbitrary scale: (+++=large zone of inhibition, −=no zone of inhibition). Compound 1 (n=6, and n=4) were tested by spotting 3 μL of a 10 μg/mL sample onto a filter disc which was placed on a lawn of bacteria. N.B. Compound 1 (n=8) was used as a positive control.

Staphylococcus aureus [1] = test: Zone Inhibition Assay; parameters: key: +++=large zone of inhibition; −=no zone of inhibition; details: 3 μL of a 10 μg/mL sample on a filter disc on a lawn of bacteria, arbitrary scale
Description: as §1

Mycobacterium smegmatis = test: Zone Inhibition Assay; parameters: key: +++=large zone of inhibition; −=no zone of inhibition; details: 3 μL of a 10 μg/mL sample on a filter disc on a lawn of bacteria, arbitrary scale
Description: as §1

Enterococcus faecalis = test: Zone Inhibition Assay; parameters: key: +++=large zone of inhibition; −=no zone of inhibition; details: 3 μL of a 10 μg/mL sample on a filter disc on a lawn of bacteria, arbitrary scale
Description: as §1

M. abscessus = test: MIC by BACTEC or Mueller-Hinton agar method
Description: (§2) Inhibition of various bacteria by compound 1 (n=8) is described in Table 1. The biological data were determined by either the BACTEC or Mueller-Hinton agar method and expressed as a minimum inhibitory concentration (MIC).

[2] = tested on: Mycobacterium tuberculosis; test: MIC by BACTEC or Mueller-Hinton agar method
Description: as §2

Staphylococcus aureus [3] = test: MIC by BACTEC or Mueller-Hinton agar method
Description: as §2

M. avium intracellulare = test: MIC by BACTEC or Mueller-Hinton agar method
Description: as §2

Nocardia asteroides = test: MIC by BACTEC or Mueller-Hinton agar method
Description: as §2

[4] = tested on: Rapid Growing Atypical Mycobacterial Strains; test: MIC by BACTEC or Mueller-Hinton agar method
Description: as §2

N. nova = test: MIC by BACTEC or Mueller-Hinton agar method
Description: as §2

[5] = tested on: S. aureus (Coagulas-negative); test: MIC by BACTEC or Mueller-Hinton agar method
Description: as §2

M. fortuitum = test: MIC by BACTEC or Mueller-Hinton agar method
Description: as §2

Enterococci sp. = test: MIC by BACTEC or Mueller-Hinton agar method
Description: as §2

Structure (SMILES)	Zone of Inhibition (Bacillus subtilis)	Zone of Inhibition (Staphylococcus aureus [1])	Zone of Inhibition (Mycobacterium smegmatis)	Zone of Inhibition (Enterococcus faecalis)	MIC (M. abscessus) [µg/mL]	MIC [2] [µg/mL]	MIC (Staphylococcus aureus [3]) [µg/mL]	MIC (M. avium intracellulare) [µg/mL]	MIC (Nocardia asteroides) [µg/mL]	MIC [4] [µg/mL]	MIC (N. nova) [µg/mL]	MIC [5] [µg/mL]	MIC (M. fortuitum) [µg/mL]	MIC (Enterococci sp.) [µg/mL]
CCCCCCCCN(CCCCCCCC)S[C@@H]1O[C@@H]([C@H](O)CO)[C@H](O)[C@H]1O [1 (n=6), N,N-Dioctyl-S-(1-thio-β-D-galactofuranosyl)sulfenamide]	+++	+++	+++	+++										
CCCCCCCCCCN(CCCCCCCCCC)S[C@@H]1O[C@@H]([C@H](O)CO)[C@H](O)[C@H]1O [Compound 1 (n=8), N,N-Didecyl-S-(1-thio-β-D-galactofuranosyl)sulfenamide]					<5	<5	5 to 50	<5	<5	<5	<5	5 to 50	<5	5 to 50
